For this assay, the system named is soluble Aβ40 production. Kind of assay: PKPD turnover model of MRK-560 inhibition of soluble Aβ40 production (models A, B, C). It counts as in vivo, Tg2576 transgenic mice. Particulars: for IC50: Mus musculus. The protocol:
In a second step, drug effect data were added to the AP analysis in order to develop an integrated PKPD model that incorporated both age-dependent AP and an age-dependent drug effect. To this end, the initially developed logistic model (eq. 3) was combined with a turnover model (Dayneka et al. [1993]; Jusko and Ko [1994]). This part of the analysis was only performed for soluble and insoluble Aβ40, as drug effect data for Aβ42 were not available from all studies. In this approach, the age-dependent AP causing an increase in soluble Aβ40 production (Kin,sol) was described following equations (4 and 5): [drawing 4] (4) [drawing 5] (5) in which Kin,sol and kout,sol corresponded to the production and loss of soluble Aβ40, respectively.
The inhibitory effect of MRK-560 on soluble Aβ40 was modeled using a turnover model (eq. 4), where the production of soluble Aβ40 was inhibited by the drug concentration. The model took into account the time delay between changes in plasma concentration of the drug and changes insoluble Aβ40 levels. Three types of drug effect models were evaluated: (A) absolute (eq. 6), (B) relative change from the baseline (eq. 7), and (C) modified relative change from the baseline (eq. 7). In model B the IC50(solAβ40) was constant, while in model C it was dependent on the soluble Aβ40 levels via a linear function as shown in equation (8).
Kin,sol corresponded to the age-dependent production of soluble Aβ40, kout,sol corresponded to the loss of soluble Aβ40, Imax was a maximum drug-induced soluble Aβ40 reduction (either absolute or relative reduction from the baseline for eqs. 6 and 7, respectively), CBr represented the brain concentrations, IC50 was a concentration which induced half of the maximum inhibition, while AP corresponded to the AP, described using equation (3). Additionally, parameter SL represented a slope of the linear relationship between absolute Aβ40 levels and IC50.
Changes in soluble Aβ40 were assumed to change the production of insoluble Aβ40. This effect was modeled using a turnover model and was described using equations (9–11): [drawing 9] (9) [drawing 10] (10) [drawing 11] (11) where Kin,insol was the production of insoluble Aβ40, which was dependent on the soluble Aβ40 levels, kout,insol was the loss of insoluble Aβ40, and SCALE was the scaling function between soluble and insoluble Aβ40 levels. Similar as in equation (3), α2 from equation (11) was the upper asymptote in the logistic function, ECi2 was a point of inflection and P2 was the slope parameter. A graphical representation of the PKPD model can be found in Figure 1.
All modeling analyses were performed in NONMEM (version 7.1.0, ICON Development Solutions, Ellicott City, MD [Schoemaker and Cohen [1996]]). The best models were chosen based on the analysis of their objective function, the precision of parameter estimates, and goodness-of-fit plots. The analysis of NONMEM output was performed using R software (R Development Core Team [2008]) and Xpose4 package (Jonsson and Karlsson [1998]). The 90% prediction intervals were calculated using the visual predictive check (VPC) as described by (Post et al. [2008]). In brief, 1000 simulations of the data were performed using final parameter estimates and 5th, 50th, and 95th percentiles were calculated.

Setting [1] is: model A (absolute drug effect), estimate (SE%).

Each structure is given as a SMILES string.

`O=S(=O)(NC1CCC(c2cc(F)ccc2F)(S(=O)(=O)c2ccc(Cl)cc2)CC1)C(F)(F)F` (stereo not drawn) [MRK-560, N-[cis-4-[(4-chlorophenyl)-sulfonyl]-4-(2,5-difluorophenyl)cyclohexyl]-1,1,1-trifluoromethanesulfonamide]: the IC50 is, setting by setting: under setting [1], 90 nM; (model B (relative drug effect, constant IC50), estimate (SE%)) 190 nM; (model C, 5-month-old Tg2576 mice, brain concentration) 110 nM; (model C, 25-month-old Tg2576 mice, brain concentration) 12000 nM. The Imax by setting is: (final model (model C)) 86%; under setting [1], 59 (4) pg/mg; (model B (relative drug effect), estimate (SE%)) 88 (10) %.

Usually IC50 stands for the midpoint of a concentration-inhibition curve.
